Experimental findings from ChEMBL document CHEMBL4680155, “One-pot synthesis and molecular docking of some new spiropyranindol-2-one derivatives as immunomodulatory agents and in vitro antimicrobial potential with DNA gyrase inhibitor” (Eur J Med Chem, 2020) are described below.

In brackets after ≈: the same amount, converted by molar mass. Activity calls are given as the source filed them.

Experiment [1] has as its system Enterococcus faecalis. Kind of experiment: Antibacterial activity against Enterococcus faecalis ATCC 29212 assessed as diameter of inhibition zone at 0.5 mg/ml incubated for 24 hrs by agar diffusion method. Type of experiment: functional. A general note: A growth-free zone around the sample is the usual read-out of agar diffusion tests.
The subject of experiment [2] is Staphylococcus aureus. Description: Antibacterial activity against Staphylococcus aureus ATCC 29213 assessed as diameter of inhibition zone at 0.5 mg/ml incubated for 24 hrs by agar diffusion method. Type of experiment: functional.
The subject of experiment [3] is Escherichia coli. Kind of experiment: Antibacterial activity against Escherichia coli ATCC 25922 assessed as diameter of inhibition zone at 0.5 mg/ml incubated for 24 hrs by agar diffusion method. Type of experiment: functional.
In experiment [4] the test system is Salmonella typhimurium. Description: Antibacterial activity against Salmonella typhi ATCC 6539 assessed as diameter of inhibition zone at 0.5 mg/ml incubated for 24 hrs by agar diffusion method. In kind it is functional, Salmonella enterica subsp. enterica serovar Typhimurium.
For experiment [5], the system named is Candida albicans. Description: Antifungal activity against Candida albicans ATCC 10231 assessed as diameter of inhibition zone at 0.5 mg/ml incubated for 24 hrs by agar diffusion method. Type of experiment: functional. Conditions: read-out: DIZ.
Experiment [6] deals with Aspergillus brasiliensis. Kind of experiment: Antifungal activity against Aspergillus brasiliensis ATCC 16404 assessed as diameter of inhibition zone at 0.5 mg/ml incubated for 72 hrs by agar diffusion method. In kind it is functional. Conditions: read-out: DIZ.
The test system of experiment [7] is Enterococcus faecalis. Description: Antibacterial activity against Enterococcus faecalis ATCC 29212 assessed as reduction in bacterial growth incubated for 1 day by paper disk diffusion method. Type of experiment: functional.
Experiment [8] has as its system Staphylococcus aureus. Description: Antibacterial activity against Staphylococcus aureus ATCC 29213 assessed as reduction in bacterial growth incubated for 1 day by paper disk diffusion method. Type of experiment: functional.
In experiment [9] the test system is Escherichia coli. Kind of experiment: Antibacterial activity against Escherichia coli ATCC 25922 assessed as reduction in bacterial growth incubated for 1 day by paper disk diffusion method. Type of experiment: functional.
Experiment [10] relates to Salmonella typhimurium. Kind of experiment: Antibacterial activity against Salmonella typhi ATCC 6539 assessed as reduction in bacterial growth incubated for 1 day by paper disk diffusion method. In kind it is functional, Salmonella enterica subsp. enterica serovar Typhimurium.
Experiment [11] has as its system Candida albicans. Kind of experiment: Antifungal activity against Candida albicans ATCC 10231 assessed as reduction in bacterial growth incubated for 1 day by paper disk diffusion method. The conditions noted are these: ATCC 10231, 24 h. Type of experiment: functional.
Experiment [12] relates to Aspergillus brasiliensis. Kind of experiment: Antifungal activity against Aspergillus brasiliensis ATCC 16404 assessed as reduction in bacterial growth incubated for 3 days by paper disk diffusion method. In kind it is functional. The conditions noted are these: ATCC 16404, 72 h, time 3 day.
The test system of experiment [13] is Enterococcus faecalis. Description: Bactericidal activity against Enterococcus faecalis ATCC 29212 incubated for 24 hrs followed by transferring to freshly prepared broth medium and measured after 24 hrs by broth microdilution assay. Type of experiment: functional. The conditions noted are these: time 48 hrs. (In general: Dilution methods test growth across graded concentrations, often in twofold steps.)

The subject of experiment [14] is Staphylococcus aureus. Kind of experiment: Bactericidal activity against Staphylococcus aureus ATCC 29213 incubated for 24 hrs followed by transferring to freshly prepared broth medium and measured after 24 hrs by broth microdilution assay. In kind it is functional. Conditions: time 48 hrs.
The subject of experiment [15] is Escherichia coli. Description: Bactericidal activity against Escherichia coli ATCC 25922 incubated for 24 hrs followed by transferring to freshly prepared broth medium and measured after 24 hrs by broth microdilution assay. Conditions: time 48 hrs. Type of experiment: functional.
In experiment [16] the test system is Salmonella typhimurium. Kind of experiment: Bactericidal activity against Salmonella typhi ATCC 6539 incubated for 24 hrs followed by transferring to freshly prepared broth medium and measured after 24 hrs by broth microdilution assay. Type of experiment: functional, Salmonella enterica subsp. enterica serovar […]. The conditions noted are these: Salmonella enterica, time 48 hrs.

Experiment [17] relates to Candida albicans. Kind of experiment: Fungicidal activity against Candida albicans ATCC 10231 incubated for 24 hrs followed by transferring to freshly prepared broth medium and measured after 24 hrs by broth microdilution assay. Type of experiment: functional. The conditions noted are these: time 48 hrs.
For experiment [18], the system named is Aspergillus brasiliensis. Description: Fungicidal activity against Aspergillus brasiliensis ATCC 16404 incubated for 72 hrs followed by transferring to freshly prepared broth medium and measured after 24 hrs by broth microdilution assay. In kind it is functional. The conditions noted are these: time 96 hrs.
Experiment [19] relates to Staphylococcus aureus. Description: Antibacterial activity against multidrug resistant Staphylococcus aureus ATCC 43300 assessed as diameter of inhibition zone at 0.5 mg/ml incubated for 24 hrs by agar diffusion method. Type of experiment: functional. Conditions: read-out: DIZ.
In experiment [20] the test system is Staphylococcus aureus. Kind of experiment: Antibacterial activity against multidrug resistant Staphylococcus aureus ATCC 33591 assessed as diameter of inhibition zone at 0.5 mg/ml incubated for 24 hrs by agar diffusion method. Type of experiment: functional. Conditions: read-out: DIZ.
In experiment [21] the test system is Escherichia coli. Description: Antibacterial activity against multidrug resistant Escherichia coli ATCC BAA-196 assessed as diameter of inhibition zone at 0.5 mg/ml incubated for 24 hrs by agar diffusion method. In kind it is functional. The conditions noted are these: read-out: DIZ.
The subject of experiment [22] is Pseudomonas aeruginosa. Kind of experiment: Antibacterial activity against multidrug resistant Pseudomonas aeruginosa ATCC BAA-2111 assessed as diameter of inhibition zone at 0.5 mg/ml incubated for 24 hrs by agar diffusion method. In kind it is functional. Conditions: read-out: DIZ.
The test system of experiment [23] is Staphylococcus aureus. Kind of experiment: Antibacterial activity against multidrug resistant Staphylococcus aureus ATCC 43300 assessed as reduction in bacterial growth incubated for 1 day by paper disk diffusion method. Type of experiment: functional. The conditions noted are these: ATCC 43300, 24 h.
In experiment [24] the test system is Staphylococcus aureus. Description: Antibacterial activity against multidrug resistant Staphylococcus aureus ATCC 33591 assessed as reduction in bacterial growth incubated for 1 day by paper disk diffusion method. Type of experiment: functional. Conditions: ATCC 33591, 24 h.
For experiment [25], the system named is Escherichia coli. Description: Antibacterial activity against multidrug resistant Escherichia coli ATCC BAA-196 assessed as reduction in bacterial growth incubated for 1 day by paper disk diffusion method. In kind it is functional. The conditions noted are these: ATCC BAA-196, 24 h.
The test system of experiment [26] is Pseudomonas aeruginosa. Kind of experiment: Antibacterial activity against multidrug resistant Pseudomonas aeruginosa ATCC BAA-2111 assessed as reduction in bacterial growth incubated for 1 day by paper disk diffusion method. Type of experiment: functional. The conditions noted are these: ATCC BAA-2111, 24 h.
Experiment [27] has as its system Staphylococcus aureus. Description: Bactericidal activity against Staphylococcus aureus ATCC 43300 incubated for 24 hrs followed by transferring to freshly prepared broth medium and measured after 24 hrs by broth microdilution assay. The conditions noted are these: time 48 hrs. In kind it is functional.
Experiment [28] relates to Staphylococcus aureus. Kind of experiment: Bactericidal activity against Staphylococcus aureus ATCC 33591 incubated for 24 hrs followed by transferring to freshly prepared broth medium and measured after 24 hrs by broth microdilution assay. Type of experiment: functional. The conditions noted are these: time 48 hrs.
The subject of experiment [29] is Escherichia coli. Kind of experiment: Bactericidal activity against Escherichia coli ATCC BAA-196 incubated for 24 hrs followed by transferring to freshly prepared broth medium and measured after 24 hrs by broth microdilution assay. Type of experiment: functional. The conditions noted are these: time 48 hrs.
Experiment [30] concerns Pseudomonas aeruginosa. Description: Bactericidal activity against Pseudomonas aeruginosa ATCC BAA-2111 incubated for 24 hrs followed by transferring to freshly prepared broth medium and measured after 24 hrs by broth microdilution assay. In kind it is functional. The conditions noted are these: time 48 hrs.
A further experiment relates to Neutrophil. Description: Immunomodulatory activity in human neutrophils infected with bacteria assessed as increase in bacterial killing by measuring reduced NBT incubated for 30 mins by NBT dye based spectrophotometry. Also noted: concentration or dose not given beside the values. Conditions: 0.5 h. In kind it is functional.
A further experiment deals with DNA gyrase (Staphylococcus aureus, UniProt P0A0K8+P20831). Kind of experiment: Inhibition of Staphylococcus aureus DNA gyrase using relaxed pBR322 DNA as substrate incubated for 45 mins by agarose gel electrophoresis method. In kind it is protein-complex assay.
Where [31] appears, read: Salmonella enterica subsp. enterica serovar Typhimurium.

DNA gyrase, sequence (P0A0K8 whole entry): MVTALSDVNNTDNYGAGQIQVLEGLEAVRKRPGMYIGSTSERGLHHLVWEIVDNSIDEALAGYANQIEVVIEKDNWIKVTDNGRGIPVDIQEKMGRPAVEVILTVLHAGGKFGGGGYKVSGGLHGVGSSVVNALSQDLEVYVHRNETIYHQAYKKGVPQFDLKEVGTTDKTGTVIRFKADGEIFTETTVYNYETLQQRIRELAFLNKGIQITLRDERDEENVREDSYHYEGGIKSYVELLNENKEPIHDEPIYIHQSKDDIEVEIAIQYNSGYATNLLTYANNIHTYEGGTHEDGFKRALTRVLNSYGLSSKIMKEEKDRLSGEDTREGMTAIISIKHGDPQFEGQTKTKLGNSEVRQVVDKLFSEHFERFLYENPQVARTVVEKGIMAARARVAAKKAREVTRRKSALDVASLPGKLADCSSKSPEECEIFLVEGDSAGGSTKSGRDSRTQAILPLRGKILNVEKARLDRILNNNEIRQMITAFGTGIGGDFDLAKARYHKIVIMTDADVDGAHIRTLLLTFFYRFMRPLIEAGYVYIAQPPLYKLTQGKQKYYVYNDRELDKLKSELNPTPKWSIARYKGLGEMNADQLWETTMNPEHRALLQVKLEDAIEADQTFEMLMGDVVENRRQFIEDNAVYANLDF
DNA gyrase, sequence (P20831 whole entry): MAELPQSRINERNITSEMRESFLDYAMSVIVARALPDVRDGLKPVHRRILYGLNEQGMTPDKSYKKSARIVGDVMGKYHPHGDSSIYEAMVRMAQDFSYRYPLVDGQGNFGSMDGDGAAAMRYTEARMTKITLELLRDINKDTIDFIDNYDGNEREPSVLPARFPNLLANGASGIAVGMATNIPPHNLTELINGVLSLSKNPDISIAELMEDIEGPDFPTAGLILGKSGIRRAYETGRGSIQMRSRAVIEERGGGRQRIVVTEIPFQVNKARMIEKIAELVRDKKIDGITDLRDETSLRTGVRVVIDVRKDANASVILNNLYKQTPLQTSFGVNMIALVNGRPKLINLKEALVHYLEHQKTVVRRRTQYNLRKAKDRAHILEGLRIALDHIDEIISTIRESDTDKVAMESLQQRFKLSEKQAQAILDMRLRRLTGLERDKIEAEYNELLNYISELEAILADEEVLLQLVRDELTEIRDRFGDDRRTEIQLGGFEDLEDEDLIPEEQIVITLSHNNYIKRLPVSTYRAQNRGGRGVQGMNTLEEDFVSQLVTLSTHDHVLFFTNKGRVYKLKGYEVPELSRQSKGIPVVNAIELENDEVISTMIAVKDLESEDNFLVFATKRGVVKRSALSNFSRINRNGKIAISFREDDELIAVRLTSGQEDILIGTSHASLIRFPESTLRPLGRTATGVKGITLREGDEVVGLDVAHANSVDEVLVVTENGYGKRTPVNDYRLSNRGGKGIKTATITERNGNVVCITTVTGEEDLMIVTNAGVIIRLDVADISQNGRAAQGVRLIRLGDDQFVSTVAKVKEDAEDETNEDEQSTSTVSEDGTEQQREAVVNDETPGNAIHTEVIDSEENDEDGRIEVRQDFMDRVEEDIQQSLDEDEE

`CCOC(=O)/C(C#N)=C1\C(=O)Nc2ccc(S(=O)(=O)N3CCOCC3)cc21`: the zone of inhibition at 500 µg/mL came out at 24 mm in the experiment on Enterococcus faecalis [1] (read-out: DIZ); 25 mm in the experiment on Staphylococcus aureus [2] (read-out: DIZ); 26 mm with Escherichia coli [3] (read-out: DIZ); 24 mm in the experiment with Salmonella typhimurium [4] (Salmonella enterica, read-out: DIZ); 23 mm with Candida albicans [5]; 18 mm in the experiment on Aspergillus brasiliensis [6]. The zone of inhibition at 500 µg/mL is 25 mm with Staphylococcus aureus [19], 25 mm in the experiment with Staphylococcus aureus [20], 26 mm in the experiment with Escherichia coli [21] and 24 mm with Pseudomonas aeruginosa [22]. Further, the MIC worked out at 3.9 µg/mL (≈ 9.96 µM) in the experiment on Enterococcus faecalis [7] (ATCC 29212, 24 h); 15.6 µg/mL (≈ 39.9 µM) in the experiment on Staphylococcus aureus [8] (ATCC 29213, 24 h); 3.9 µg/mL (≈ 9.96 µM) with Escherichia coli [9] (ATCC 25922, 24 h); 31.2 µg/mL (≈ 79.8 µM) in the experiment on Salmonella typhimurium [10] (Salmonella enterica, ATCC 6539, 24 h); 6.25 µg/mL (≈ 16 µM) in the experiment with Candida albicans [11]; 88.3 µg/mL (≈ 226 µM) with Aspergillus brasiliensis [12]. The minimal inhibitory concentration (MIC) in the experiment on Staphylococcus aureus [23] came to 1.95 µg/mL (≈ 4.98 µM); with Staphylococcus aureus [24], 1.95 µg/mL (≈ 4.98 µM); with Escherichia coli [25], 1.57 µg/mL (≈ 4.01 µM); with Pseudomonas aeruginosa [26], 3.9 µg/mL (≈ 9.96 µM). For the same compound, the MBC is 7.8 µg/mL (≈ 19.9 µM) in the experiment with Enterococcus faecalis [13]; 21.9 µg/mL (≈ 55.9 µM) against Staphylococcus aureus [14]; 7.8 µg/mL (≈ 19.9 µM) in the experiment with Escherichia coli [15]; 62.5 µg/mL (≈ 160 µM) with Salmonella typhimurium [16]; 3.12 µg/mL (≈ 7.97 µM) against Staphylococcus aureus [27]; 3.7 µg/mL (≈ 9.45 µM) in the experiment with Staphylococcus aureus [28]. The results for the MBC against Escherichia coli [29] and in the experiment with Pseudomonas aeruginosa [30] were 3.14 µg/mL (≈ 8.02 µM) and 7.8 µg/mL (≈ 19.9 µM), respectively. The MFC in the experiment on Candida albicans [17] amounted to 10.6 µg/mL (≈ 27.1 µM); against Aspergillus brasiliensis [18], 124 µg/mL (≈ 316 µM). In addition, the Activity in the experiment on Neutrophil was found to be 152.3%. Further, the IC50 against DNA gyrase came to 27 µM.
For `C[C@@H]1[C@H](O)[C@@H](C)/C=C/C=C/C=C/C=C/C=C/C=C/C=C/[C@H](O[C@@H]2O[C@H](C)[C@@H](O)[C@H](N)[C@@H]2O)C[C@@H]2O[C@](O)(C[C@@H](O)C[C@@H](O)[C@H](O)CC[C@@H](O)C[C@@H](O)CC(=O)O[C@H]1C)C[C@H](O)[C@H]2C(=O)O` [AMPHOTERICIN B], the “diameter of the inhibition zone (DIZ)” value in the experiment with Enterococcus faecalis [1], in the experiment with Staphylococcus aureus [2], with Escherichia coli [3] and in the experiment with Salmonella typhimurium [4] (setting [31]) was “inactive” in each case. Further, the zone of inhibition at 500 µg/mL in the experiment on Candida albicans [5] turned out to be 22 mm. The MIC entry in the experiment on Enterococcus faecalis [7], in the experiment on Staphylococcus aureus [8], in the experiment on Escherichia coli [9] and in the experiment on Salmonella typhimurium [10] (setting [31]) was “inactive” in each case. For the same compound, the minimum inhibitory concentration (MIC) with Candida albicans [11] worked out at 15.6 µg/mL (≈ 16.9 µM); in the experiment with Aspergillus brasiliensis [12], 31.2 µg/mL (≈ 33.8 µM). Besides, the results for the minimum fungicidal concentration (MFC) against Candida albicans [17] and against Aspergillus brasiliensis [18] were 34.6 µg/mL (≈ 37.5 µM) and 65.6 µg/mL (≈ 71 µM), respectively.
On to `CCn1cc(C(=O)O)c(=O)c2cc(F)c(N3CCNCC3)cc21` [NORFLOXACIN], for which the zone of inhibition at 500 µg/mL in the experiment on Staphylococcus aureus [19] is 25 mm; in the experiment with Staphylococcus aureus [20], 26 mm; in the experiment with Escherichia coli [21], 27 mm; with Pseudomonas aeruginosa [22], 24 mm. Further, the MIC in the experiment with Staphylococcus aureus [23] was found to be 1.25 µg/mL (≈ 3.91 µM); in the experiment with Staphylococcus aureus [24], 0.78 µg/mL (≈ 2.44 µM); in the experiment with Escherichia coli [25], 1.57 µg/mL (≈ 4.92 µM); in the experiment with Pseudomonas aeruginosa [26], 3.13 µg/mL (≈ 9.8 µM). The minimum bactericidal concentration (MBC) was 2.81 µg/mL (≈ 8.8 µM) with Staphylococcus aureus [27], 1.56 µg/mL (≈ 4.89 µM) with Staphylococcus aureus [28], 3.53 µg/mL (≈ 11.1 µM) in the experiment on Escherichia coli [29] and 4.69 µg/mL (≈ 14.7 µM) against Pseudomonas aeruginosa [30].

Broadly, the MIC is the lowest concentration found to suppress growth. What is called MBC is the smallest concentration meeting the test's criterion for killing. Broadly, the MFC is the lowest tested concentration that kills the fungus rather than only halting it. A word on the IC50: it is the concentration at which inhibition is half-maximal.
